In US11834453B2, “Substituted pyrimido[5,4-d]pyrimidines as HER2 inhibitors” (Array BioPharma Inc., priority 2020, dated 2023) one finds IC50 data, which are given here for 18 compounds.

For orientation: pIC50 means the negative decadic logarithm of the IC50, by convention in mol/L.

pIC50: −log10 of the molar value.

For assay [1], the target named is ErbB2 insYVMA (HER2-YVMA, SEQ ID NO: 2) (Homo sapiens, UniProt P04626, INS775YVMA/P1170A). In words: biochemical. The settings on record: ErbB2 insYVMA enzyme assay; read-out: Assay 1 IC50.
Assay [2] concerns the target ErbB2 with Exon 20 YVMA insertion (HER2-YVMA) (Homo sapiens (Human), UniProt P04626, INS775YVMA). Put plainly: Cellular phosphorylation assay, constitutive ErbB2 phosphorylation (Y1196) in engineered NIH 3T3 cells, Assay 4. It is filed as cell-based. On the procedure: Serially diluted compounds were added to the plates for 1 hour at 37° C./5% CO2. EGFR WT cells were stimulated with 100 ng/ml rEGF for an additional 10 minutes at 37° C./5% CO2. After compound incubation, medium was removed from the cells, which were then fixed in 3.7% formaldehyde in PBS at room temperature for 20 minutes. Following a wash with PBS, cells were permeabilized with 100% methanol at room temperature for 10 minutes. Cells were then washed with PBS/0.05% Tween-20 and blocked with Odyssey blocking buffer (LI-COR Biosciences) for at least 1 hour at room temperature. Antibodies to phosphorylated ErbB2 (Y1196, Cell Signaling #6942) or phosphorylated EGFR (Y1068, Cell Signaling #3777) and GAPDH (Millipore #MAB374) were added to the cells in blocking buffer containing 0.05% azide and incubated overnight at 4° C. After washing with PBS/0.05° i° Tween-20, the cells were incubated with fluorescently labeled secondary anti-rabbit antibody (LiCOR, IRDye 800CW #926-32211) and anti-mouse antibody (Molecular Probes, Alexa Fluor 680 #A21058) for 1 hour at room temperature in the dark. Cells were then washed and analyzed for fluorescence at both wavelengths using the Odyssey Infrared Imaging System (LI-COR Biosciences). Phosphorylated ErbB2 and EGFR signal was normalized to GAPDH signal to generate curves and calculate IC50 values.

A further assay deals with EGFR (Homo sapiens (Human), UniProt P00533). In words: ErbB enzyme assay (CisBio HTRF KinEASE-TK), Assay 3. It is filed as biochemical. On the procedure:
(§1) Compound potencies were determined using CisBio's HTRF Kinease-TK assay technology. The kinases were incubated with 250 nM TK-substrate biotin (CisBio, part of cat #62TK0PEC) at 1 mM ATP along with test compounds in a buffer consisting of 25 mM HEPES, pH 7.4, 10 mM MgCl2, 0.01% Triton X-100, and 2% DMSO in a volume of 8 μL. Compounds were prepared as a three-fold serial dilution in DMSO and added to the assay to give the appropriate final concentration. After 30-minute incubation at 22° C., the reaction was quenched by adding 8 μL of quench solution containing 62.5 nM Sa-XL665 and 0.25× TK-Ab-Cryptate in HTRF detection buffer (all from CisBio, part of cat #62TK0PEC). After a 1-hour incubation at 22° C., the extent of reaction was determined using a PerkinElmer EnVision multimode plate reader via HTRF dual wavelength detection, and the percent of control (POC) was calculated using a ratiometric emission factor. One hundred POC was determined using DMSO only samples (no compound present), and 0 POC was determined using pre-quenched control reactions. A 4-parameter logistic curve was fit to the POC values as a function of the concentration of compound, and the IC50 value was the point where the best-fit curve crossed 50 POC.
(§2) Enzyme lots and concentration used are in Table 2.
In general terms: Time-resolved FRET reads energy transfer from a long-lived donor to a nearby acceptor.

The next assay concerns the target ErbB2 WT (Homo sapiens (Human), UniProt P04626). In words: ErbB enzyme assay (CisBio HTRF KinEASE-TK), Assay 2. It is filed as biochemical. On the procedure: as §1, with “Compounds were prepared as a three-fold serial dilution in DMSO and added to the assay to give the appropriate final concentration.” left out, “reactions.” for “reactions. A 4-parameter logistic curve was fit to the POC values as a function of the concentration of compound, and the IC50 value was the point where the best-fit curve crossed 50 POC.”
as §2

ErbB2 with Exon 20 YVMA insertion (HER2-YVMA), sequence (P04626 other isoform, or with tags, fused parts or gaps ins YVMA behind 775): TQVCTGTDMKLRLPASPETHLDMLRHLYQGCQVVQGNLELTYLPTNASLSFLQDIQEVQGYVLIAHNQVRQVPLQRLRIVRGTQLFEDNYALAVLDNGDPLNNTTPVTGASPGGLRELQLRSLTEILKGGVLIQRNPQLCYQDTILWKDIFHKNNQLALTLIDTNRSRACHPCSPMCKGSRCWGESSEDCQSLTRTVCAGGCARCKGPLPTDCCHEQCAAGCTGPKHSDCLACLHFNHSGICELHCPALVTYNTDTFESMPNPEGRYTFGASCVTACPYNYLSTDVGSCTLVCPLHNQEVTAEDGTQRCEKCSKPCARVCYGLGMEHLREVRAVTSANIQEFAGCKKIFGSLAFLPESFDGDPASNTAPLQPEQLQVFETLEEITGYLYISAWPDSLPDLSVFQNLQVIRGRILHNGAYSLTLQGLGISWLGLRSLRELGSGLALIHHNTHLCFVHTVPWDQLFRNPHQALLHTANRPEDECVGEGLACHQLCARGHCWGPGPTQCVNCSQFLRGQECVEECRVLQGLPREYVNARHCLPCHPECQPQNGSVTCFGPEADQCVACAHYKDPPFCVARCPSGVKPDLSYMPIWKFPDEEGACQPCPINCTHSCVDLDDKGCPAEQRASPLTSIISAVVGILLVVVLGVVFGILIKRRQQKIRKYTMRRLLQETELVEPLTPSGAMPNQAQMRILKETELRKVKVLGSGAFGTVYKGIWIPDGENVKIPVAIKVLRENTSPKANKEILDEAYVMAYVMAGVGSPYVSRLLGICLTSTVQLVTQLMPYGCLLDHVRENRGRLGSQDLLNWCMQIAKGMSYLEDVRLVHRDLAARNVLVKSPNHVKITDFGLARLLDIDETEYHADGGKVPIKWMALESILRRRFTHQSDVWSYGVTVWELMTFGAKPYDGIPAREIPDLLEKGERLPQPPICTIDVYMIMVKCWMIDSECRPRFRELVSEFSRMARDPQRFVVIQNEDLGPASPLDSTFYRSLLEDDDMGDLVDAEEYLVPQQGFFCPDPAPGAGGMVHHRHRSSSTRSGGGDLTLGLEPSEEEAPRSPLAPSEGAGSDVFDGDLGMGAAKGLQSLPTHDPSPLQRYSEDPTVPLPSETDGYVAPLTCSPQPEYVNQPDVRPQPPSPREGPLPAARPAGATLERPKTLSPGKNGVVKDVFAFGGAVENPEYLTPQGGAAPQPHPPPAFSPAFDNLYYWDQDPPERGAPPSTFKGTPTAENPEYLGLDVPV
ErbB2 WT, sequence (P04626 23-1255): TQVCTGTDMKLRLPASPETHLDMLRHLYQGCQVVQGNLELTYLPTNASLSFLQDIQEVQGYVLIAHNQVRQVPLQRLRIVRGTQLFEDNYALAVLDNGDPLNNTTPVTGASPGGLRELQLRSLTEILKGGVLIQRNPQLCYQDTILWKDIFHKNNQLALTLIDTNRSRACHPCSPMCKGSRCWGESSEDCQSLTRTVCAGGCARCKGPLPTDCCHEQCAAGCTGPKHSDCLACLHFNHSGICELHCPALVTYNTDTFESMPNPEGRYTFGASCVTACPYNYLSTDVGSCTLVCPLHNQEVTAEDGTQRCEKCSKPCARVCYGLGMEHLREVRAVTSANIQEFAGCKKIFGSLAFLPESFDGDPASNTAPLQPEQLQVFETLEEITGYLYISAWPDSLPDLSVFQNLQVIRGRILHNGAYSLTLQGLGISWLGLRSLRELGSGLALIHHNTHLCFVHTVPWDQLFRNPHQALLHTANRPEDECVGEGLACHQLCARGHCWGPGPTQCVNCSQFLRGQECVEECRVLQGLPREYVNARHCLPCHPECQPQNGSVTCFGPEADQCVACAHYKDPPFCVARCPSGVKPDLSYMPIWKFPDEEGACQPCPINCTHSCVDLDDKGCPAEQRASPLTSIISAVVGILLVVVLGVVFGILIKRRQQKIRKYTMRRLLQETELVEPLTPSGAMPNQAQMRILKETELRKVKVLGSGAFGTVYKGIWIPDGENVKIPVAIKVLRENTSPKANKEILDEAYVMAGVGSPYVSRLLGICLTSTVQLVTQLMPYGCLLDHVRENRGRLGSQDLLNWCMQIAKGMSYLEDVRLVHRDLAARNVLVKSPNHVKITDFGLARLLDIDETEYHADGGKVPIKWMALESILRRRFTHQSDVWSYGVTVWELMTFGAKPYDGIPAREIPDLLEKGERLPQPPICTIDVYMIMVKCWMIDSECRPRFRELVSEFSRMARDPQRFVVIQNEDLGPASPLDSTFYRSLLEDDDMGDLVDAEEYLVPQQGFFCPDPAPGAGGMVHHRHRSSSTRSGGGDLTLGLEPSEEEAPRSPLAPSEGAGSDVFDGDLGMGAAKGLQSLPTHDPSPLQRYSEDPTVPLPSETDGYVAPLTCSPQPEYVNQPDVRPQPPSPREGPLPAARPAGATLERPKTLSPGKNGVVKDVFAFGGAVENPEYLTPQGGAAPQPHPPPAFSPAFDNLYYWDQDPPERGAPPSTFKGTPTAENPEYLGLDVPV
ErbB2 insYVMA (HER2-YVMA, SEQ ID NO: 2), sequence (P04626 with tags, fused parts or gaps INS775YVMA/P1170A limits assumed): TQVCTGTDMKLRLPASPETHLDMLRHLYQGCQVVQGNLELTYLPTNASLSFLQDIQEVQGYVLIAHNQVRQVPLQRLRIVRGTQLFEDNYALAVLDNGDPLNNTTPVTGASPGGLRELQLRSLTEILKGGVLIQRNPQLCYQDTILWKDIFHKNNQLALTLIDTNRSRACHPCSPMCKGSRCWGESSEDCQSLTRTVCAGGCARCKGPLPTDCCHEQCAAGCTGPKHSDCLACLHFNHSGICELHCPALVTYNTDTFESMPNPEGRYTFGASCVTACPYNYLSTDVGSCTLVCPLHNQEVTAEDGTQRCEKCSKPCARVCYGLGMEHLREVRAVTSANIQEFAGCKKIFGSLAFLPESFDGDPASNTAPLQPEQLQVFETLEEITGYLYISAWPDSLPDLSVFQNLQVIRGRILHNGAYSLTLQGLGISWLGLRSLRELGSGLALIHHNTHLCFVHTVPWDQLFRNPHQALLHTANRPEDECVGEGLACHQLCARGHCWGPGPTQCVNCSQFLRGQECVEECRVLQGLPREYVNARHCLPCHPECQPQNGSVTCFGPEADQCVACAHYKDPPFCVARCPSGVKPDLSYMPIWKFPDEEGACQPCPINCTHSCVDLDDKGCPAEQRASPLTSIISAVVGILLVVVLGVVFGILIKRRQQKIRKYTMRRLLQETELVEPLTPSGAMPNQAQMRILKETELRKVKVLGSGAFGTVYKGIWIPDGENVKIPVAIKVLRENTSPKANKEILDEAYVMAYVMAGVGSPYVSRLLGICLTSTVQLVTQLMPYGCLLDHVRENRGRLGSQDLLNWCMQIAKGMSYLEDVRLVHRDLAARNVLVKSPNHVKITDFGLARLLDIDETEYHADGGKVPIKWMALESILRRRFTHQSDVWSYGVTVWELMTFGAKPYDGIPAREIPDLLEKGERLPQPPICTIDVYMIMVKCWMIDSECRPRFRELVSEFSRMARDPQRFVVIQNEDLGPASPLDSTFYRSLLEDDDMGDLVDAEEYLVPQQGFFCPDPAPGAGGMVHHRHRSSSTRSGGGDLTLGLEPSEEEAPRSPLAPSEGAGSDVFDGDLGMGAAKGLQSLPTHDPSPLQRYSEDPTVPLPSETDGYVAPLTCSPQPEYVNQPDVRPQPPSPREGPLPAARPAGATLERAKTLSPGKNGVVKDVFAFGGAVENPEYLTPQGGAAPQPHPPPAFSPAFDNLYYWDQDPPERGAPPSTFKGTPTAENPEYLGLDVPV
EGFR, sequence (P00533 25-1210): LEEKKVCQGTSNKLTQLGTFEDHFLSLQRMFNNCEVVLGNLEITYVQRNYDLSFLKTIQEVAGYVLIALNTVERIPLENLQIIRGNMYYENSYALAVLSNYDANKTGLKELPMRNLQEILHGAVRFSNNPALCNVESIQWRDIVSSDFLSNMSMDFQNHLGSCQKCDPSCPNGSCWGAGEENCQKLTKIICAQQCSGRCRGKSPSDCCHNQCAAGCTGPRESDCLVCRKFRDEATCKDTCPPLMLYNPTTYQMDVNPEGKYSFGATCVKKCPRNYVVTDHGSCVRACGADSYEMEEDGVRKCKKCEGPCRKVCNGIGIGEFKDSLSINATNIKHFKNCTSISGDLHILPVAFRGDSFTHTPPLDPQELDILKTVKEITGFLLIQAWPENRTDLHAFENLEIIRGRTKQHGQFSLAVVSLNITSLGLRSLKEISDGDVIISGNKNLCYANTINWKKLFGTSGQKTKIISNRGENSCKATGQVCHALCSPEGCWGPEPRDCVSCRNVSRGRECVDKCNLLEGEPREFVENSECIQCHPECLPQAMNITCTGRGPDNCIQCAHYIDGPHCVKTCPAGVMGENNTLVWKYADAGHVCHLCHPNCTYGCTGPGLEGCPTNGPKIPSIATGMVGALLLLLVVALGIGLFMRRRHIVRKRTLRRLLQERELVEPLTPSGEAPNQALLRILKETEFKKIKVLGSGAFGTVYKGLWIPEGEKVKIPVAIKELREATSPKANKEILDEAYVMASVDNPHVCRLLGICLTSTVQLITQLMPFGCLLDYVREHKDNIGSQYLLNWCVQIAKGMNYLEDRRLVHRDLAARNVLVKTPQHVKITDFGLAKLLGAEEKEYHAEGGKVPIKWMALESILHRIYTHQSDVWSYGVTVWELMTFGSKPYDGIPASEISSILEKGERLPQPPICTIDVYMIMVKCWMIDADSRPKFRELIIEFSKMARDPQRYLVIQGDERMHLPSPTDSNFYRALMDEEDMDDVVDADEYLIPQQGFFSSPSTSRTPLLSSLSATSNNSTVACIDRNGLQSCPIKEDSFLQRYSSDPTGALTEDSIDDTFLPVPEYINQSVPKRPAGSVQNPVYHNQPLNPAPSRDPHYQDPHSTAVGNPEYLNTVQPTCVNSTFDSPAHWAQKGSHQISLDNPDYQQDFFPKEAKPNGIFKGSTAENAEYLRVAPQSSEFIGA

On to `Cc1cc(Nc2ncnc3cnc(N4CCCC(OC(F)F)C4)nc23)ccc1Oc1ccc2c(c1)ncn2C` (racemic) [Example 40, 6-(3-(difluoromethoxy)piperidin-1-yl)-N-(3-methyl-4-((1-methyl-1H-benzo[d]imidazol-5-yl)oxy)phenyl)pyrimido[5,4-d]pyrimidin-4-amine], for which the negative-log IC50 (pIC50) is 7.15 in assay [1], 7.04 in assay [2], at most 5.00 on EGFR and 6.84 on ErbB2 WT.
On the same counts, the results for `Cc1cc(Nc2ncnc3cnc(N4CC5(CCOC5)C4)nc23)ccc1Oc1ccc2c(c1)ncn2C` [Example 21, N-(3-methyl-4-((1-methyl-1H-benzo[d]imidazol-5-yl)oxy)phenyl)-6-(6-oxa-2-azaspiro[3.4]octan-2-yl)pyrimido[5,4-d]pyrimidin-4-amine] are 7.47, 7.08, 6.00 and 7.01.
Consider `CC(=O)N1CC2CC(C1)N2c1ncc2ncnc(Nc3ccc(Oc4ccc5c(c4)ncn5C)c(C)c3)c2n1` [Example 23, 1-(6-(8-((3-methyl-4-((1-methyl-1H-benzo[d]imidazol-5-yl)oxy)phenyl)amino)pyrimido[5,4-d]pyrimidin-2-yl)-3,6-diazabicyclo[3.1.1]heptan-3-yl)ethan-1-one], for which the pIC50 is 6.50 in assay [1], 6.14 in assay [2], at most 5.00 against EGFR and 5.87 against ErbB2 WT.
`Cc1cc(Nc2ncnc3cnc(N4CC5CC(C4)N5C)nc23)ccc1Oc1ccc2c(c1)ncn2C` [Example 33, N-(3-methyl-4-((1-methyl-1H-benzo[d]imidazol-5-yl)oxy)phenyl)-6-(6-methyl-3,6-diazabicyclo[3.1.1]heptan-3-yl)pyrimido[5,4-d]pyrimidin-4-amine]: the pIC50 in assay [1] is 7.00; in assay [2], 6.23; against EGFR, at most 5.00; on ErbB2 WT it was 6.43.
For `Cc1cc(Nc2ncnc3cnc(N4CC(C(F)F)C4)nc23)ccc1Oc1ccc2c(c1)ncn2C` [Example 37, 6-(3-(difluoromethyl)azetidin-1-yl)-N-(3-methyl-4-((1-methyl-1H-benzo[d]imidazol-5-yl)oxy)phenyl)pyrimido[5,4-d]pyrimidin-4-amine], in that order: 7.10, 6.76, at most 5.00 and 6.41.
On to `Cc1cc(Nc2ncnc3cnc(N4CC5CC(C5)C4)nc23)ccc1Oc1ccc2c(c1)ncn2C` [Example 39, 6-(3-azabicyclo[3.1.1]heptan-3-yl)-N-(3-methyl-4-((1-methyl-1H-benzo[d]imidazol-5-yl)oxy)phenyl)pyrimido[5,4-d]pyrimidin-4-amine], for which the pIC50 was 6.70 in assay [1], 6.53 in assay [2], at most 5.00 on EGFR and 6.45 against ErbB2 WT.
On the same counts, the results for `Cc1cnc(-c2ncc3ncnc(Nc4ccc(Oc5ccc6c(c5)ncn6C)c(C)c4)c3n2)s1` [Example 41, N-(3-methyl-4-((1-methyl-1H-benzo[d]imidazol-5-yl)oxy)phenyl)-6-(5-methylthiazol-2-yl)pyrimido[5,4-d]pyrimidin-4-amine] are 6.71, 7.28, at most 5.00 and 6.63.
Regarding `COC1CN(c2ncc3ncnc(Nc4ccc(Oc5ccc6c(c5)ncn6C)c(C)c4)c3n2)C1` [Example 43, 6-(3-methoxyazetidin-1-yl)-N-(3-methyl-4-((1-methyl-1H-benzo[d]imidazol-5-yl)oxy)phenyl)pyrimido[5,4-d]pyrimidin-4-amine], the negative-log IC50 (pIC50) in assay [1] is 7.54; in assay [2], 7.04; against EGFR it was at most 5.00; against ErbB2 WT it was 7.22.
For `Cc1cc(Nc2ncnc3cnc(NC4CCC4(F)F)nc23)ccc1Oc1ccc2c(c1)ncn2C` (centres unmarked) [Example 52, N2-(2,2-difluorocyclobutyl)-N8-(3-methyl-4-((1-methyl-1H-benzo[d]imidazol-5-yl)oxy)phenyl)pyrimido[5,4-d]pyrimidine-2,8-diamine], in that order: 7.00, 6.80, at most 5.00 and 6.50.
For `Cc1cc(Nc2ncnc3cnc(N4CCC[C@H]4C(F)F)nc23)ccc1Oc1ccc2c(c1)ncn2C` [Example 55, (S)-6-(2-(difluoromethyl)pyrrolidin-1-yl)-N-(3-methyl-4-((1-methyl-1H-benzo[d]imidazol-5-yl)oxy)phenyl)pyrimido[5,4-d]pyrimidin-4-amine], in that order: 6.96, 7.01, at most 5.00 and 6.58.
As for `Cc1cc(Nc2ncnc3cnc(N4CCC[C@@H]4C(F)F)nc23)ccc1Oc1ccc2c(c1)ncn2C` [Example 56, (R)-6-(2-(difluoromethyl)pyrrolidin-1-yl)-N-(3-methyl-4-((1-methyl-1H-benzo[d]imidazol-5-yl)oxy)phenyl)pyrimido[5,4-d]pyrimidin-4-amine], the pIC50 is 6.69 in assay [1], 6.98 in assay [2], at most 5.00 at EGFR and 6.39 against ErbB2 WT.
For the compound `Cc1cc(Nc2ncnc3cnc(N[C@@H](C)COC(F)(F)F)nc23)ccc1Oc1ccc2c(c1)ncn2C` [Example 63, (S)—N8-(3-methyl-4-((1-methyl-1H-benzo[d]imidazol-5-yl)oxy)phenyl)-N2-(1-(trifluoromethoxy)propan-2-yl)pyrimido[5,4-d]pyrimidine-2,8-diamine], the pIC50 in assay [1] is 6.71; in assay [2] it was 6.72; at EGFR, at most 5.00; at ErbB2 WT, 6.06.
With `Cc1cc(Nc2ncnc3cnc(O[C@@H]4CNC[C@@H]4F)nc23)ccc1Oc1ccc2c(c1)ncn2C` [Example 86, 6-(((3R,4S)-4-fluoropyrrolidin-3-yl)oxy)-N-(3-methyl-4-((1-methyl-1H-benzo[d]imidazol-5-yl)oxy)phenyl)pyrimido[5,4-d]pyrimidin-4-amine], the pIC50 in assay [2] is 6.58; at EGFR it was at most 5.00; against ErbB2 WT, 6.52.
Consider `Cc1cc(Nc2ncnc3cnc(N(C)c4cnn(C)c4)nc23)ccc1Oc1ccc2c(c1)ncn2C` [Example 108, N2-methyl-N2-(1-methyl-1H-pyrazol-4-yl)-N8-(3-methyl-4-((1-methyl-1H-benzo[d]imidazol-5-yl)oxy)phenyl)pyrimido[5,4-d]pyrimidine-2,8-diamine], for which the pIC50 in assay [1] was 7.42; on EGFR it was 5.37; on ErbB2 WT, 7.41.
Turning to `Cc1c(Oc2ccn3ncnc3c2)ccc(Nc2ncnc3cnc(N4C[C@@H]5CC4CO5)nc23)c1F` [Example 313], the pIC50 was 7.67 in assay [1] and 7.39 on ErbB2 WT.
For the compound `Cc1cc(Nc2ncnc3cnc(N(C)Cc4ccccc4)nc23)ccc1Oc1ccc2c(c1)ncn2C` [Example 331], the pIC50 in assay [1] is 6.39; at EGFR, at most 5.00; at ErbB2 WT, 6.41.
Turning to `Cc1cc(Nc2ncnc3cnc(N(C)C4CCCOC4)nc23)ccc1Oc1ccc2c(c1)ncn2C` (centres unmarked) [Example 473], the negative-log IC50 (pIC50) was 7.67 in assay [1] and 7.70 at ErbB2 WT.
As for `Cc1cc(Nc2ncnc3cnc(N4CCN(C)[C@H](C)C4)nc23)ccc1Oc1ccc2c(c1)ncn2C` [Example 490], the negative logarithm of the IC50 (pIC50) at EGFR is at most 5.00.
